Reference: PubChem BioAssay (NCI)
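Compound exposure: 48 hours, 5 concentrations, 96-well plates. The concentration for full growth arrest is given as TGI.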

What was measured:
Experiment in all cases: NCI tumour cell line growth inhibition, 48 h
CAKI-1 renal = system: CAKI-1 renal
OVCAR-3 ovarian = system: OVCAR-3 ovarian
HOP-62 NSCLC = system: HOP-62 NSCLC
SK-MEL-5 melanoma = system: SK-MEL-5 melanoma
EKVX NSCLC = system: EKVX NSCLC
OVCAR-5 ovarian = system: OVCAR-5 ovarian
UO-31 renal = system: UO-31 renal
MALME-3M melanoma = system: MALME-3M melanoma
KM12 colon = system: KM12 colon
SK-MEL-28 melanoma = system: SK-MEL-28 melanoma
HCT-116 colon = system: HCT-116 colon
HT29 colon = system: HT29 colon

| SMILES | TGI (CAKI-1 renal) [µM] | TGI (OVCAR-3 ovarian) [µM] | TGI (HOP-62 NSCLC) [µM] | TGI (SK-MEL-5 melanoma) [µM] | TGI (EKVX NSCLC) [µM] | TGI (OVCAR-5 ovarian) [µM] | TGI (UO-31 renal) [µM] | TGI (MALME-3M melanoma) [µM] | TGI (KM12 colon) [µM] | TGI (SK-MEL-28 melanoma) [µM] | TGI (HCT-116 colon) [µM] | TGI (HT29 colon) [µM] |
| --- | --- | --- | --- | --- | --- | --- | --- | --- | --- | --- | --- | --- |
| CC(=O)Oc1ccc(/C=C/C(=O)OCCCOC(=O)/C=C/c2ccc(OC(C)=O)c(OC(C)=O)c2)cc1OC(C)=O | > 100 | > 100 | > 100 | > 100 | > 100 | > 100 | > 100 | > 100 | > 100 | > 100 | > 100 | > 100 |
| N#Cc1c2c(c(N)oc1=O)C(c1ccccc1)CC(=O)N2 (configuration not stated) | > 100 | > 100 | > 100 | > 100 | > 100 | > 100 | > 100 | > 100 | > 100 | > 100 | > 100 | > 100 |
| c1cnc2c(c1)ccc1cccnc12 | 27.3 | > 86.6 | > 100 | > 34 | > 78.6 | > 100 | > 49.5 | > 35.3 | > 100 | > 100 | > 100 | > 100 |
| COC(=O)/C=C(\CC(=O)OC)n1nnnc1[C@@H]1C[C@H](COC(c2ccccc2)(c2ccccc2)c2ccccc2)[C@H]2OC(C)(C)O[C@H]21 | > 100 | > 100 | > 100 | > 100 | > 100 | > 100 | > 100 | > 100 | > 100 | > 100 | > 100 | > 100 |
| Cc1ccc(NC(=O)c2cc(S(=O)(=O)Nc3n[nH]c(=O)[nH]3)c(SSc3cc(Cl)c(C(=O)Nc4ccc(C)cc4)cc3S(=O)(=O)Nc3n[nH]c(=O)[nH]3)cc2Cl)cc1 | > 100 | > 100 | > 100 | > 100 | > 100 | > 100 | > 100 | > 100 | > 100 | > 100 | > 100 | > 100 |
| NC(=O)C(=CNC(=S)Nc1ccccc1)C(N)=O | > 100 | > 100 | > 100 | > 100 | > 100 | > 100 |  | > 100 | > 100 | > 100 | > 100 | > 100 |
| COc1ccc(Oc2cccc(C3C4C(=O)N(c5ccc(C)c(Cl)c5)C(=O)C4ON3C(C(N)=O)c3ccccc3)c2)cc1 (configuration not stated) | > 50 | > 50 | > 50 | 32.2 | 26.6 | > 50 | > 50 | > 50 | > 50 | > 50 | 45.2 | 19.8 |
| O=[N+]([O-])/C(C(Cl)=C(Cl)Cl)=C(/Cl)SCc1ccccc1 | 12.5 | 12.1 | 30 | 20.8 | 40.1 | 17.5 | 4.83 | 6.68 | 34.6 | 20.8 | 3.88 | 27.9 |
| CCOC(=O)C1(F)S(=O)(=O)OCCOS1(=O)=O | > 100 | > 100 | > 100 | > 100 | > 100 | > 100 | > 100 | > 100 | > 100 | > 100 | > 100 | > 100 |
| CC1CN=C(N(Cc2ccccc2)C(=O)Nc2ccc(Cl)c(Cl)c2)S1 (configuration not stated) | > 100 | > 100 | > 100 | 51.9 | > 100 | > 100 | 97.9 | > 100 | > 100 | 68.8 | > 100 | > 100 |
| O=[N+]([O-])c1ccc(-c2nc3ccc(Cl)cc3[nH]2)cc1 | > 100 | > 100 | > 100 | > 100 | > 100 |  | > 100 | > 100 |  | > 100 | > 100 | > 100 |
| O=c1c2cc(S(=O)(=O)O)ccc2nc(COc2ccc(Oc3ccc(Cl)cc3Cl)cc2)n1-c1ccc(Oc2ccc(Cl)cc2)cc1Cl | > 100 | 36.9 | 46 | 34.6 | 44.5 | 55.1 | 27 | 85.2 | > 100 |  | 58.4 | 36 |
| O=C(/C=C/c1ccc(Oc2cc(C(=O)/C=C/c3ccc(O)cc3)c(O)cc2O)cc1)c1ccc(O)cc1O | 18.1 | 11.9 | 15.5 | 17.1 | 27.9 | 16.7 | > 100 | 26.6 | 6.64 | 7.07 | 4.57 | 3.57 |
| c1ccc2oc(-c3ccc(-c4nc5ccccc5o4)c4c3CC4)nc2c1 | > 100 | > 100 | > 100 | > 100 | > 100 | > 100 | > 100 | > 100 | > 100 | > 100 | > 100 | > 100 |
| CCOC(=O)C(C(=O)OCC)=C1NC2(c3ccccc3Nc3ccccc32)C(C#N)S1 (configuration not stated) | 53.7 | 4.78 | 27 | 21.6 | 47.2 | 36.1 | 25.3 | 29 | 19.2 | 50.7 | 27.6 | 17.8 |
| COC(=O)c1ccc2c(c1)S/C(=C/c1ccc3ccc4cccc5ccc1c3c45)S2 | > 100 | 49.3 | > 100 | > 100 | > 100 | > 100 | > 100 | > 100 | 57.3 |  | > 100 | > 100 |
| N#Cc1nc(-c2ccco2)oc1N | > 10 |  | > 10 | > 10 | > 10 | > 10 | > 10 | > 10 | > 10 | > 10 | > 10 | > 10 |
| O=C(/C=C/c1ccccc1)Oc1ccc(C(=O)/C=C/c2ccc(Cl)cc2)cc1 | > 100 | > 100 | > 100 | > 100 | > 100 | > 100 | > 100 | > 100 | > 100 | > 100 | > 100 | > 100 |
| CCOC(=O)N1N=C(/C(C)=N/OC)C(C)S1=O (configuration not stated) | > 100 | > 100 | > 100 | > 100 | > 100 | > 100 | > 100 | > 100 | > 100 | > 100 | > 100 | > 100 |
